Assay type in all cases: cell-based
Assay [1] relates to Hs578t human breast cancer cells. As to the kind of experiment: Single agent growth inhibition (Cell Titer-Glo proliferation). The note with it: Hs-578T, 72 hours. As to the method:
(§1) The growth inhibitory activities of two test agents, eribulin and entinostat, were determined alone and in combination against 12 human breast cancer cell lines (Table 1). The human breast tumor cell lines were selected based on their profile characteristics of being either human epidermal growth factor receptor 2 negative (Her2') and estrogen receptor positive (ER^+) or Triple Negative (Her2^-, ER^-, and progesterone receptor negative [PR^-]). Activities of individual agents were determined by curve-fitting the concentration of agent that inhibits cell growth by 50% compared to the control cells in a four parameter-logistic equation, whereas agent combinations were determined by the method of (Chou and […] Advances in Enzyme Regulation 22:27-55, 1984), and analyzed with CalcuSyn software. Fa, the fraction of affected drug targets at a given drug concentration, was calculated from the fractional decrease. Each agent was tested individually to determine the median-effect dose, Dm, (or EC50, the 50% effect concentration). For combination treatments, drug solutions were mixed at ratios providing approximately equipotent concentrations based upon relative Dm, and this mixture was serially diluted to yield test concentrations. The Combination Index (CI), computed from ratios of the concentrations of mixed and unmixed drugs that produce the same Fa, indicates whether inhibition is additive, synergistic, or antagonistic. In whole-cell assays, inhibitor interactions are complex (mixed), rather than mutually exclusive (purely competitive) or nonexclusive (purely non-competitive), CI values for both types of inhibition are reported to define the range of possible values. […] Finally, in Experiment 3, we determined the antiproliferative activity of the study agents in combination against the panel of human tumor cell lines. […] We further analyzed quadruplicate samples over a seven point dose response range. MCF-7 human breast cancer cells were cultured in RPMI 1640 medium supplemented with 10% fetal bovine serum (FBS), 2 mM glutamine, 10 mM 4-(2-hydroxyethyl)-1-piperazineethanesulfonic acid (HEPES), 0.075% sodium bicarbonate, 100 units/mL sodium penicillin G, 100 μg/mL streptomycin sulfate and 25 μg/mL gentamicin. T-47D human breast cancer cells were cultured in RPMI 1640 medium supplemented with 10% FES. 4.5 g/L glucose. 2 mM glutamine. 10 mM HEPES, 0.2 units/mL Insulin, 1 mM sodium pyruvate, 100 units/mL sodium penicillin G, 100 streptomycin sulfate and 25 μg/mL gentamicin, ZR-75-1 human breast cancer cells were cultured in RPMI 1640 medium supplemented with 10% FBS, 4.5 g/L. glucose, 2 mM glutamine, 10 […] HEPES, 1 mM sodium pyruvate, 100 units/mL sodium penicillin G, 100 μg/mL streptomycin sulfate and 25 μg/mL gentamicin. […] HCC70 human breast cancer cells were cultured in RPMI1640 medium supplemented with 10% FBS, 2 mM glutamine, 4.5 g/L glucose, 10 mM HEPES, 0.075% sodium bicarbonate, 1 mM sodium pyruvate, 100 units/mL sodium penicillin 0, 100 μg/mL streptomycin sulfate and 25 μg/mL gentamicin. […] The tumor cells were cultured in tissue culture flasks in a humidified incubator at 37° C., in an atmosphere of 5% CO2 and 95% air; except for the MDA-MB-134-VI, MDA-MB-175-VII, MDA-MB-415, and MDA-MB-436, these cells were cultured at 37° C. in 100% air and no additional CO2. The selected human tumor cells were seeded at 2,000-5,000 cells/well in a clear polystyrene 96-well microculture plate (Corning® Costar® 96-well flat bottom plate, Cat. No. 3997) in a total volume of 90 μL per well. After 24 hours of incubation in a humidified incubator at 37° C. with 5% CO2 and 95% air (except for the MDA-MB-134-VI, MDA-MB-175-VII, MDA-MB-415, and MDA-MB-436, these cells were cultured at 37° C. in 100% air, no additional CO2), 10 μL of the 10× drug prep was added. […]
For orientation: Cellular ATP, detected with luciferase, serves as a proxy for viable cell number.

In assay [2] the test system is MDA-MB-436 human adenocarcinoma derived cancer cells. The description is as above. The note with it: 144 hours. As to the method: as §1
The test system of assay [3] is MDA-MB-231 human breast cancer cells. The description is as above. The note with it: 72 hours. As to the method:
as §1

Assay [4] relates to MCF-7 human breast cancer cells. Described as above. The note with it: 72 hours. On the procedure:
as §1

In assay [5] the test system is MDA-MB-415 human breast cancer cells. The description is as above. The note with it: 144 hours. On the procedure:
as §1

The subject of assay [6] is HCC1806 human breast cancer cells. The description is as above. The note with it: 72 hours. On the procedure:
as §1

Assay [7] relates to BT-549 human breast cancer cells. Described as above. The note with it: 72 hours. On the procedure:
as §1

The test system of assay [8] is T-47D human breast cancer cells. The description is as above. The note with it: T47D, 72 hours. On the procedure: as §1
In assay [9] the test system is MDA-MB-134VI human breast cancer cells. The description is as above. The note with it: 144 hours. On the procedure:
as §1

For assay [10], the system named is HCC70 human breast cancer cells. Described as above. The note with it: 72 hours. As to the method:
as §1

For assay [11], the system named is MDA-MB-175VII human breast cancer cells. Described as above. The note with it: 144 hours. On the procedure:
as §1

For assay [12], the system named is ZR-75-1 human breast cancer cells. The assay is described as above. The note with it: Experiment 2, narrow concentration range, 72 hours. As to the method:
as §1

In assay [13] the test system is panel of 12 human breast cancer cell lines. The assay can be described thus: Single agent inhibitory activity across the cell line panel. The note with it: all 12 cell lines, Experiments 1 and 2. As to the method: The growth inhibitory activities of two test agents, eribulin and entinostat, were determined alone and in combination against 12 human breast cancer cell lines (Table 1). The human breast tumor cell lines were selected based on their profile characteristics of being either human epidermal growth factor receptor 2 negative (Her2') and estrogen receptor positive (ER^+) or Triple Negative (Her2^-, ER^-, and progesterone receptor negative [PR^-]). Activities of individual agents were determined by curve-fitting the concentration of agent that inhibits cell growth by 50% compared to the control cells in a four parameter-logistic equation, whereas agent combinations were determined by the method of (Chou and […] Advances in Enzyme Regulation 22:27-55, 1984), and analyzed with CalcuSyn software. Fa, the fraction of affected drug targets at a given drug concentration, was calculated from the fractional decrease. […] Finally, in Experiment 3, we determined the antiproliferative activity of the study agents in combination against the panel of human tumor cell lines. […] We further analyzed quadruplicate samples over a seven point dose response range. […] The medium/Cell Titer-Glo® reagent was transferred to a white polystyrene 96-well microculture plate (Corning® Costar® 96-well flat bottom plate, Cat. No. 3917) before determining luminescence on the Tecan GENios microplate. […]

[14] abbreviates: Experiment 1, wide concentration range, read-out: Wide range IC50.
[15] abbreviates: Experiment 2, narrow concentration range, read-out: Narrow range IC50.
Where [16] appears, read: MCF7, Experiment 1, wide concentration range, read-out: Wide range IC50.
Setting [17] is: MCF7, Experiment 2, narrow concentration range, read-out: Narrow range IC50.

The results in this text go back to US20190282541A1, “USE OF ERIBULIN AND HISTONE DEACETYLASE INHIBITORS IN THE TREATMENT OF CANCER” (EISAI R&D MANAGEMENT CO., LTD., priority 2016, published 2019).

SMILES strings stand for the structures. pIC50: −log10 of the molar value. Read-outs that look alike come from different tables or passages of the source.

A word on the pIC50: it is −log10 of the IC50, conventionally taken in molar units. With `Nc1ccccc1NC(=O)c1ccc(CNC(=O)OCc2cccnc2)cc1` [entinostat, pyridin-3-yl methyl N-[[4-[(2-aminophenyl)carbarnoyl]phenyl]methyl carbamate], the negative-log IC50 (pIC50) is 5.96 in [1] (setting [14]); 5.85 in [1] (setting [15]); 6.09 in assay [2] (setting [14]); 5.86 in [2] (setting [15]); 6.21 in [3] (setting [14]); 6.03 in [3] (setting [15]). In addition, the negative logarithm of the IC50 (pIC50) in assay [4] (setting [16]) is 6.27; in assay [4] (setting [17]) it was 6.24; in assay [5] (setting [14]) it was 7.04; in assay [5] (setting [15]) it was 6.85; in [6] (setting [14]) it was 6.26; in [6] (setting [15]), 5.91. Moreover, the pIC50 in assay [7] (setting [14]) was 5.90; in assay [7] (setting [15]) it was 5.82; in assay [8] (setting [14]), 5.80; in assay [8] (setting [15]) it was 5.75; in [9] (setting [14]), 6.41; in [9] (setting [15]), 6.10. Further, the pIC50 is 5.84 in assay [10] (setting [14]); 5.95 in assay [10] (setting [15]); 6.68 in assay [11] (setting [14]); 5.93 in assay [11] (setting [15]); 5.31 in [12].
Take `C=C1C[C@@H]2CC[C@@]34C[C@H]5O[C@H]6[C@@H](O3)[C@H]3O[C@H](CC[C@@H]3O[C@H]6[C@H]5O4)CC(=O)C[C@@H]3[C@@H](OC)[C@@H](C[C@H](O)CN)O[C@H]3C[C@H]3O[C@@H](CC[C@@H]1O2)C[C@@H](C)C3=C` [eribulin]: the “Relative potency of single agents” value in [13] was “more potent than entinostat in all cell lines”. Besides, the pIC50 in assay [1] (setting [14]) was 9.41; in [1] (setting [15]), 9.17; in assay [2] (setting [14]), 8.55; in [2] (setting [15]), 8.49; in assay [3] (setting [14]), 9.59; in assay [3] (setting [15]) it was 9.28. In addition, the negative-log IC50 (pIC50) in assay [4] (setting [16]) was 9.66; in assay [4] (setting [17]), 9.43; in assay [5] (setting [14]), 9.19; in assay [5] (setting [15]), 9.24; in assay [6] (setting [14]), 9.60; in [6] (setting [15]) it was 9.52. The pIC50 in assay [7] (setting [14]) was 9.64; in assay [7] (setting [15]), 9.41; in assay [8] (setting [15]), 8.94; in assay [9] (setting [14]) it was 9.21; in assay [9] (setting [15]), 9.06; in [10] (setting [14]), 9.46. Also, the values for the negative logarithm of the IC50 (pIC50) in assay [11] (setting [14]) and in assay [11] (setting [15]) were 9.26 and 8.96, respectively.
